Measured values as given in ChEMBL document CHEMBL3352722, “Calcitonin gene-related peptide receptor antagonists: new therapeutic agents for migraine” (J Med Chem, 2014).
Blank lines part the entries; values can stand above or below the compound they belong to.

What was measured:
Homo sapiens [1] = species: Homo sapiens; test: Antimigraine activity in migraine patient assessed as pain relief incidence at 100 mg after 2 hrs (reference value: 51.2%); assay type: functional
Homo sapiens [2] = species: Homo sapiens; test: Antimigraine activity in migraine patient assessed as pain freedom incidence at 100 mg after 2 hrs (reference value: 15.3%); assay type: functional
Homo sapiens [3] = species: Homo sapiens; test: Antimigraine activity in migraine patient assessed as pain freedom incidence at 40 mg after 2 hrs (reference value: 8.6%); assay type: functional
Homo sapiens [4] = species: Homo sapiens; test: Antimigraine activity in migraine patient assessed as pain relief incidence at 40 mg after 2 hrs (reference value: 18.6%); assay type: functional
[5] = target: Calcitonin gene-related peptide type 1 receptor (Homo sapiens, UniProt O60894+Q16602); test: Antagonist activity against human CGRP receptor
Sequence of Calcitonin gene-related peptide type 1 receptor (Q16602 whole entry, one chain of several): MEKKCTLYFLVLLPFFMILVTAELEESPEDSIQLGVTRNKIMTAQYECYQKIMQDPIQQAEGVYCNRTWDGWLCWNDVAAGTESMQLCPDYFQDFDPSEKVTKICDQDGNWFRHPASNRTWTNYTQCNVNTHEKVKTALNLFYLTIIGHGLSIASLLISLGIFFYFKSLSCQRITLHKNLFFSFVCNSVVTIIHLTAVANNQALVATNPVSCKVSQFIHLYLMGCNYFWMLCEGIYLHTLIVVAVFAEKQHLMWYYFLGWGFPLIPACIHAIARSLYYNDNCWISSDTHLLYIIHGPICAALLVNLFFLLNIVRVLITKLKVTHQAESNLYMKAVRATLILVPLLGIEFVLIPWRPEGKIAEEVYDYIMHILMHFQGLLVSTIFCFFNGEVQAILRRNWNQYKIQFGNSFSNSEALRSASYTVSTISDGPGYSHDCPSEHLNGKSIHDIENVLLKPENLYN

Homo sapiens [6] = test: In vivo receptor occupancy at CGRP receptor in human brain at 1120 mg using […]-labeled compound; assay type: functional
Homo sapiens [7] = test: In vivo receptor occupancy at CGRP receptor in human brain at 140 mg using […]-labeled compound; assay type: functional
Homo sapiens [8] = species: Homo sapiens; test: Antimigraine activity in migraine patient assessed as response rate for pain freedom at 200 mg after 2 hrs; assay type: functional
Homo sapiens [9] = species: Homo sapiens; test: Antimigraine activity in migraine patient assessed as pain freedom incidence at 200 mg after 2 hrs (reference value: 8.6%); assay type: functional
Homo sapiens [10] = species: Homo sapiens; test: Antimigraine activity in migraine patient assessed as pain relief incidence at 200 mg after 2 hrs (reference value: 18.6%); assay type: functional
Homo sapiens [11] = species: Homo sapiens; test: Antimigraine activity in migraine patient assessed as pain freedom incidence at 400 mg after 2 hrs (reference value: 8.6%); assay type: functional
Homo sapiens [12] = species: Homo sapiens; test: Antimigraine activity in migraine patient assessed as response rate for pain freedom at 50 mg after 2 hrs; assay type: functional
Homo sapiens [13] = species: Homo sapiens; test: Antimigraine activity in migraine patient assessed as pain relief incidence at 400 mg after 2 hrs (reference value: 18.6%); assay type: functional
Homo sapiens [14] = species: Homo sapiens; test: Antimigraine activity in migraine patient assessed as response rate for pain freedom at 400 mg after 2 hrs; assay type: functional
Homo sapiens [15] = species: Homo sapiens; test: Antimigraine activity in migraine patient assessed as response rate for pain freedom at 50 to 400 mg after 2 hrs; assay type: functional

SMILES: CNS(=O)(=O)Cc1ccc2[nH]cc(CCN(C)C)c2c1
- Activity (Homo sapiens [1]): 72%
- Activity (Homo sapiens [2]): 35%

SMILES: CN1CCC[C@@H]1Cc1c[nH]c2ccc(CCS(=O)(=O)c3ccccc3)cc12
- Activity (Homo sapiens [3]): 34.8%
- Activity (Homo sapiens [4]): 56.5%

SMILES: NCCCC[C@H](NC(=O)[C@@H](Cc1cc(Br)c(O)c(Br)c1)NC(=O)CCCc1ccccc1)C(=O)NCCc1ccccc1
- IC50 [5]: 17 µM

SMILES: C[C@@]1(c2cc(F)cc(F)c2)CN([11CH3])C2(CCCC2)C(=O)N1CC(=O)Nc1ccc2c(c1)C[C@@]1(C2)C(=O)Nc2ncccc21
- Occ (Homo sapiens [6]): 43%
- Occ (Homo sapiens [7]): <=10%

Second part, led by results:

- IC50 [5]: 0.044 µM
SMILES: NCCCC[C@H](NC(=O)[C@@H](Cc1cc(Br)c(O)c(Br)c1)NC(=O)N1CCC(n2c(=O)oc3ccccc32)CC1)C(=O)N1CCN(c2ccncc2)CC1

- Ki [5]: 0.0003 µM
SMILES: Cc1cc(C[C@@H](OC(=O)N2CCC(N3CCc4ccccc4NC3=O)CC2)C(=O)N2CCC(N3CCOCC3)CC2)cc(C)c1O [BI-44370]
- Activity (Homo sapiens [8]): 21.5%
- Activity (Homo sapiens [9]): 21.5%
- Activity (Homo sapiens [10]): 50.8%
- Activity (Homo sapiens [11]): 27.4%
- Activity (Homo sapiens [12]): 7.8%
- Activity (Homo sapiens [13]): 56.2%
- Activity (Homo sapiens [14]): 27.4%
- Activity (Homo sapiens [15]): 34.8%
